Measured values from patent publication US8163753B2, “2,3-dihydro-6-nitroimidazo (2,1-b) oxazole compounds for the treatment of tuberculosis” (priority 2003, dated 2012).

SMILES	melting point
C[C@]1(COc2ccc(N3CCN(CC=Cc4ccc(Cl)c(Cl)c4)CC3)cc2)Cn2cc([N+](=O)[O-])nc2O1	204.7 to 206.4 °C
C[C@]1(COc2ccc(N3CCC(CCOCc4ccc(OC(F)(F)F)cc4)CC3)cc2)Cn2cc([N+](=O)[O-])nc2O1	204.8 to 206.7 °C
C[C@]1(COc2ccc(N3CCC(Nc4cc(Cl)cc(Cl)c4)CC3)cc2)Cn2cc([N+](=O)[O-])nc2O1	122 to 124 °C
C[C@]1(COc2ccc(N3CCC(COc4ccc(C(F)(F)F)cc4)CC3)cc2)Cn2cc([N+](=O)[O-])nc2O1	223.2 to 225.2 °C (dec.)
O=[N+]([O-])c1cn2c(n1)OC(COc1ccc(N3CCC(COCc4ccc(C(F)(F)F)cc4)CC3)cc1)C2 (stereo not drawn)	140.2 to 141.7 °C
O=[N+]([O-])c1cn2c(n1)OC(COc1ccc(N3CCC(Cc4ccc(OC(F)(F)F)cc4)CC3)cc1)C2 (stereo not drawn)	132.7 to 135 °C
CC1(COc2ccc3nc(N4CCN(Cc5ccc(OC(F)(F)F)cc5)CC4)sc3c2)Cn2cc([N+](=O)[O-])nc2O1 (stereo not drawn)	172.6 to 174.6 °C
C[C@]1(COc2ccc(CN3CCC(Cc4ccc(OC(F)(F)F)cc4)CC3)cc2)Cn2cc([N+](=O)[O-])nc2O1	172.5 to 174.1 °C
CCCc1ccc(N(C)C2CCN(c3ccc(OC[C@@]4(C)Cn5cc([N+](=O)[O-])nc5O4)cc3)CC2)cc1	198 to 199 °C
CN(Cc1ccc(N(C)CC=Cc2ccc(C(F)(F)F)cc2)cc1)C[C@@]1(C)Cn2cc([N+](=O)[O-])nc2O1	153.5 to 154.5 °C
C[C@]1(COc2ccc3cc(N4CCC(Oc5ccc(OC(F)(F)F)cc5)CC4)ccc3c2)Cn2cc([N+](=O)[O-])nc2O1	204.8 to 207.9 °C
CC1(COc2ccc(N3CCC(Cc4ccc(Cl)c(Cl)c4)CC3)cc2)Cn2cc([N+](=O)[O-])nc2O1 (stereo not drawn)	191.4 to 192.1 °C
C[C@]1(COc2ccc(N3CCC(COc4ccc(-c5ccccc5)cc4)CC3)cc2)Cn2cc([N+](=O)[O-])nc2O1	245 °C (dec.)
C[C@]1(COc2ccc(N3CCC(CCOCc4ccc(Cl)cc4)CC3)cc2)Cn2cc([N+](=O)[O-])nc2O1	197.6 to 198.2 °C
CN(CCCOc1ccc(OC(F)(F)F)cc1)C1CCN(c2ccc(OC[C@@]3(C)Cn4cc([N+](=O)[O-])nc4O3)cc2)CC1	167.4 to 170.2 °C
CC(C)(C)OC(=O)N1CCCN(c2ccc(-c3ccc(OC[C@H]4Cn5cc([N+](=O)[O-])nc5O4)cc3)cc2)CC1	235.5 to 237.5 °C
C[C@]1(COc2ccc(N3CCC(COCc4ccc(C(F)(F)F)cc4)CC3)cc2)Cn2cc([N+](=O)[O-])nc2O1	172.3 to 172.9 °C
C[C@]1(COc2ccc(C(=O)NCC(=O)N3CCC(Oc4ccc(OC(F)(F)F)cc4)CC3)cc2)Cn2cc([N+](=O)[O-])nc2O1	186.9 to 189.5 °C
O=[N+]([O-])c1cn2c(n1)O[C@@H](COc1ccc(N3CCC(COc4ccc(C(F)(F)F)cc4)CC3)cc1)C2	175 to 180 °C

SMILES	melting point
C[C@]1(COc2ccc(N3CCC(CCOCc4ccc(C(F)(F)F)cc4)CC3)cc2)Cn2cc([N+](=O)[O-])nc2O1	198 to 199.2 °C
O=[N+]([O-])c1cn2c(n1)O[C@@H](COc1ccc(N3CCC(Cc4ccc(OC(F)(F)F)cc4)CC3)cc1)C2	160.5 to 164 °C
C[C@]1(COc2ccc(N3CCC(OCC=Cc4ccc(OC(F)(F)F)cc4)CC3)cc2)Cn2cc([N+](=O)[O-])nc2O1	213.7 to 217.4 °C
O=[N+]([O-])c1cn2c(n1)OC(COc1ccc(N3CCC(COc4ccc(Cl)cc4)CC3)cc1)C2 (stereo not drawn)	191.2 to 192.5 °C
CC(C)(C)OC(=O)N1CCCN(c2ccc(-c3ccc(OC[C@@]4(C)Cn5cc([N+](=O)[O-])nc5O4)cc3)cc2)CC1	213.8 to 215.7 °C
O=[N+]([O-])c1cn2c(n1)O[C@@H](COc1ccc(N3CCC(CCc4ccc(OC(F)(F)F)cc4)CC3)cc1)C2	208.9 to 211.7 °C
CCCc1ccc(NC2CCN(c3ccc(OC[C@@]4(C)Cn5cc([N+](=O)[O-])nc5O4)cc3)CC2)cc1	222 to 223 °C
CN(c1ccc(OC[C@@]2(C)Cn3cc([N+](=O)[O-])nc3O2)cc1)C1CCN(c2ccc(OC(F)(F)F)cc2)CC1	137.9 to 139.2 °C
C[C@]1(COc2ccc(N3CCCN(c4ccc(OC(F)(F)F)cc4)CC3)cc2)Cn2cc([N+](=O)[O-])nc2O1	134 to 137.9 °C
CN(CC1CCN(c2ccc(OC(F)(F)F)cc2)CC1)c1ccc(OC[C@@]2(C)Cn3cc([N+](=O)[O-])nc3O2)cc1	172.5 to 175.2 °C
C[C@]1(COc2ccc(N3CCN(CCOc4ccc(OC(F)(F)F)cc4)CC3)cc2)Cn2cc([N+](=O)[O-])nc2O1	194.8 to 195.6 °C
C[C@]1(COc2ccc(N3CCC(OCc4ccc(OC(F)(F)F)cc4)CC3)cc2)Cn2cc([N+](=O)[O-])nc2O1	214.3 to 217.7 °C
C[C@]1(COc2ccc(N3CCC(COC(=O)Nc4ccc(OC(F)(F)F)cc4)CC3)cc2)Cn2cc([N+](=O)[O-])nc2O1	211.6 to 212 °C (dec.)
CN(c1ccc(Cl)cc1)C1CCN(C2CCN(c3ccc(OC[C@@]4(C)Cn5cc([N+](=O)[O-])nc5O4)cc3)CC2)CC1	230.8 to 232 °C
C[C@]1(COc2ccc(N3CCC(Nc4ccc(Cl)c(Cl)c4)CC3)cc2)Cn2cc([N+](=O)[O-])nc2O1	146 to 147.4 °C
C[C@]1(COc2ccc(N3CCC(COc4ccc(CCl)cc4)CC3)cc2)Cn2cc([N+](=O)[O-])nc2O1	140.4 to 141.7 °C
C[C@]1(COc2ccc(-c3ccc(N4CCN(Cc5ccc(Cl)c(Cl)c5)CC4)cc3)cc2)Cn2cc([N+](=O)[O-])nc2O1	222.6 to 225.1 °C (dec.)
CN(CCOc1ccc(OC(F)(F)F)cc1)C1CCN(c2ccc(OC[C@@]3(C)Cn4cc([N+](=O)[O-])nc4O3)cc2)CC1	185.7 to 187.7 °C
CN(C(=O)OC(C)(C)C)C1CCN(Cc2ccc(OCC3(C)Cn4cc([N+](=O)[O-])nc4O3)cc2)CC1 (stereo not drawn)	138.5 to 141.9 °C

The next lines start with the values.

melting point	SMILES
187.4 to 189.8 °C	C[C@]1(COc2ccc(N3CCC(Cc4cccc(OC(F)(F)F)c4)CC3)cc2)Cn2cc([N+](=O)[O-])nc2O1
217.6 to 218.6 °C	C[C@]1(COc2ccc(N3CCC(COC4CCCCO4)CC3)cc2)Cn2cc([N+](=O)[O-])nc2O1 (stereo partly drawn)
239.4 to 241.3 °C	C[C@]1(COc2ccc(N3CCC(CCc4ccc(OC(F)(F)F)cc4)CC3)cc2)Cn2cc([N+](=O)[O-])nc2O1
196 to 197 °C	CN(c1ccc(OC(F)(F)F)cc1)C1CCN(C2CCN(c3ccc(OC[C@@]4(C)Cn5cc([N+](=O)[O-])nc5O4)cc3)CC2)CC1
210 to 212.1 °C	C[C@]1(COc2ccc(N3CCN(Cc4csc(-c5ccc(C(F)(F)F)cc5)n4)CC3)cc2)Cn2cc([N+](=O)[O-])nc2O1
193.8 to 195.3 °C	CN(Cc1cc(C(F)(F)F)cc(C(F)(F)F)c1)C1CCN(c2ccc(OC[C@@]3(C)Cn4cc([N+](=O)[O-])nc4O3)cc2)CC1
171 to 173.8 °C	C[C@]1(COc2ccc(N3CCC(CO)CC3)cc2)Cn2cc([N+](=O)[O-])nc2O1
189.6 to 190.2 °C	CN(Cc1ccccc1C(F)(F)F)C1CCN(c2ccc(OC[C@@]3(C)Cn4cc([N+](=O)[O-])nc4O3)cc2)CC1
188.3 to 189.4 °C	O=[N+]([O-])c1cn2c(n1)O[C@@H](COc1ccc(N3CCC(OCc4ccc(OC(F)(F)F)cc4)CC3)cc1)C2
279 to 281 °C	C[C@]1(COc2ccc(N3CCC(N4CCN(c5ccc(OC(F)(F)F)cc5)CC4)CC3)cc2)Cn2cc([N+](=O)[O-])nc2O1
194.6 to 196.4 °C	C[C@]1(COc2ccc(C3CCN(Cc4csc(-c5ccc(C(F)(F)F)cc5)n4)CC3)cc2)Cn2cc([N+](=O)[O-])nc2O1
197.5 to 199.2 °C	CN(Cc1ccc(C(F)(F)F)cc1F)C1CCN(c2ccc(OC[C@@]3(C)Cn4cc([N+](=O)[O-])nc4O3)cc2)CC1
153.1 to 153.7 °C	CC1(COc2ccc(N3CCC(COCc4ccc(OC(F)(F)F)cc4)CC3)cc2)Cn2cc([N+](=O)[O-])nc2O1 (stereo not drawn)
198.2 to 201.4 °C	C[C@]1(COc2ccc(N3CCN(Cc4ccc(N5CCC(Oc6ccc(OC(F)(F)F)cc6)CC5)cc4)CC3)cc2)Cn2cc([N+](=O)[O-])nc2O1
247.7 to 248.4 °C (dec.)	C[C@]1(COc2ccc(-c3ccc(N4CCN(Cc5ccc(C(F)(F)F)cc5)CC4)cc3)cc2)Cn2cc([N+](=O)[O-])nc2O1
207.1 to 211.2 °C	C[C@]1(COc2ccc(N3CCC(Cc4ccc(Cl)cc4)CC3)cc2)Cn2cc([N+](=O)[O-])nc2O1
185.9 to 187.1 °C	C[C@]1(COc2ccc(C3CCN(CC=Cc4ccc(C(F)(F)F)cc4)CC3)cc2)Cn2cc([N+](=O)[O-])nc2O1
199.7 to 202 °C	C[C@]1(COc2ccc(N3CCN(CC=Cc4ccc(C(F)(F)F)cc4)CC3)cc2)Cn2cc([N+](=O)[O-])nc2O1
182.2 to 184.7 °C	C[C@]1(COc2ccc3nc(Cl)ccc3c2)Cn2cc([N+](=O)[O-])nc2O1
217.4 to 219.7 °C	C[C@]1(COc2ccc(N3CCC(OCc4ccc(C(F)(F)F)cc4)CC3)cc2)Cn2cc([N+](=O)[O-])nc2O1
198.6 to 201.1 °C (dec.)	C[C@]1(COc2ccc(N3CCC(Nc4ccc(Oc5ccc(OC(F)(F)F)cc5)cc4)CC3)cc2)Cn2cc([N+](=O)[O-])nc2O1
140.4 to 141.7 °C	O=[N+]([O-])c1cn2c(n1)O[C@@H](COc1ccc(N3CCC(COCc4ccc(OC(F)(F)F)cc4)CC3)cc1)C2
247.8 to 248.5 °C (dec.)	C[C@]1(COc2ccc(-c3ccc(N4CCN(Cc5ccc(Cl)cc5)CC4)cc3)cc2)Cn2cc([N+](=O)[O-])nc2O1
181.1 to 182.2 °C	CC1(COc2ccc(N3CCN(CC=Cc4ccc(OC(F)(F)F)cc4)CC3)cc2)Cn2cc([N+](=O)[O-])nc2O1 (stereo not drawn)
213 to 214.9 °C	CN(CC=Cc1ccc(OC(F)(F)F)cc1)C1CCN(c2ccc(OC[C@@]3(C)Cn4cc([N+](=O)[O-])nc4O3)cc2)CC1
190 to 190.4 °C	CC1(COc2ccc(N3CCC(COc4ccc(Cl)cc4)CC3)cc2)Cn2cc([N+](=O)[O-])nc2O1 (stereo not drawn)
184.9 to 185.9 °C	C[C@]1(COc2ccc3nc(N4CCC(Cc5ccc(OC(F)(F)F)cc5)CC4)ccc3c2)Cn2cc([N+](=O)[O-])nc2O1
180.9 to 182.7 °C	CC1(COc2ccc(N3CCC(Cc4ccc(OC(F)(F)F)cc4)CC3)cc2)Cn2cc([N+](=O)[O-])nc2O1 (stereo not drawn)
